According to the NIST ThermoML archive (doi:10.1021/je100605v):

Details: Liquid, Closed cell (Static) method

CCO[Si](CC)(OCC)OCC [ethyltriethoxysilane]
Details | vapor or sublimation pressure [kPa]
335 K | 2.325
340.8 K | 3.325
346.2 K | 4.325
350.4 K | 5.325
359.9 K | 8.325
367.1 K | 11.32
372.9 K | 14.32
377.7 K | 17.32
382 K | 20.32
385.8 K | 23.32
389 K | 26.33
392 K | 29.32
394.8 K | 32.33
397.4 K | 35.33
399.9 K | 38.32
402.2 K | 41.33
404.1 K | 44.33
405.5 K | 47.32
407.6 K | 50.33
410.1 K | 53.32
411.9 K | 56.33
413.7 K | 59.33
415.4 K | 62.32
416.8 K | 65.32
418.3 K | 68.33
419.4 K | 71.33
420.6 K | 74.33
421.8 K | 77.33
423.7 K | 80.32
425.4 K | 83.33
426.7 K | 86.33
427.9 K | 89.33
429.1 K | 92.33
430.2 K | 95.32
431.3 K | 98.32
432 K | 100.33
